These results are taken from PMC10235067, “Increased renal elimination of endogenous and synthetic pyrimidine nucleosides in concentrative nucleoside transporter 1 deficient mice” (Nature Communications, 2023).

Values joined by “and” are separate entries in the source; they are usually repeats but may differ in a detail not shown here. Identical values can stand only once.

The test system of data set [1] is CNT1.
Experimental: Linearity was established for analytes over the concentration ranges observed and the lower limit of quantification of the LC–MS/MS assay was approximately 0.1 ng/ml for each analyte (Fig. S2).
Standard solutions of all nucleotide targets were serially diluted to generate calibration solutions at concentrations of 0.0, 0.0001, 0.001, 0.01, 0.1, 1.0, and 10 µg/ml. Urine samples were prepared by adding 20 µL of urine solution to 80 µL of 50:50 H2O:MeOH containing internal standard, vortexing and centrifuging at 20,000 × g; then, 50 µL aliquots were placed into glass vials, dried in a SpeedVac and reconstituted in 5% MeOH with 0.1% formic acid for injection.
Samples were quantified using a heated electrospray ionization source (HESI) on a Thermo Scientific TQS Quantiva triple quadrupole mass spectrometer, and separation was achieved using a Thermo Scientific Ultimate 3000 HPLC equipped with an Agilent 120 SB-C18 reversed-phase column (2 × 100 mm, 2.7 µm particle size) maintained at 40 °C. […] For all experiments, the capillary voltage was set to 4.5 kV with a capillary temperature of 350 °C, a vaporizer temperature of 100 °C, a sheath gas flow of 12, an auxiliary gas flow of 13, and a 1.6 sweep gas. For selected reaction monitoring (SRM) mode, Q1 and Q3 were set to 0.7 full width at half maximum (FWHM) resolution, a cycle time of 0.8 s, and a CID gas pressure of 1.5 mTorr.
Data set [2] can be described thus: Gemcitabine plasma pharmacokinetics in Slc28a1+/+ and Slc28a1-/- mice. The following applies: Gem-TP in plasma, single intravenous dose of gemcitabine 50mg/kg, individual mice.

In the case of `Nc1ncnc2c1ncn2[C@@H]1O[C@H](CO)[C@@H](O)[C@H]1O` [Adenosine], the “concentration in urine, Slc28a1+/+ vs Slc28a1-/-” value in data set [1] (12 h starvation) is listed as “not significantly different”.

On to `Nc1ccn([C@H]2C[C@H](O)[C@@H](CO)O2)c(=O)n1` [Deoxycytidine], for which the “fold increase of content in urine of Slc28a1-/- mice” value in data set [1] (Slc28a1-/- vs Slc28a1+/+, urine collected over 12 h starvation, 8-week-old mice, n = 6) came to 44.8 fold.

A word on the Cmax: it is the maximum level reached in the sampled fluid or tissue. Broadly, the Tmax is the time at which the peak concentration occurs. In the case of `Nc1ccn([C@@H]2O[C@H](COP(=O)(O)OP(=O)(O)OP(=O)(O)O)[C@@H](O)C2(F)F)c(=O)n1` [Gem-TP], in data set [2] (KO (Slc28a1-/-) mice), the AUCINF_D_obs is 509.381 kg·ng·min/mL/mg and 272.158 kg·ng·min/mL/mg and 1500.18 kg·ng·min/mL/mg and 597.23 kg·ng·min/mL/mg and 1529.97 kg·ng·min/mL/mg and 1749.53 kg·ng·min/mL/mg; the AUCINF_D_pred was 476.443 kg·ng·min/mL/mg and 251.621 kg·ng·min/mL/mg and 1436.01 kg·ng·min/mL/mg and 561.179 kg·ng·min/mL/mg and 1459.25 kg·ng·min/mL/mg and 1679.11 kg·ng·min/mL/mg; the AUCINF_obs was 25469 ng·min/mL and 13607.9 ng·min/mL and 75008.8 ng·min/mL and 29861.5 ng·min/mL and 76498.5 ng·min/mL and 87476.7 ng·min/mL; the AUCINF_pred is 23822.1 ng·min/mL and 12581.1 ng·min/mL and 71800.6 ng·min/mL and 28058.9 ng·min/mL and 72962.4 ng·min/mL and 83955.6 ng·min/mL. Further, in data set [2] (KO (Slc28a1-/-) mice), the AUC_%Back_Ext_obs was 0.5829% and 5.828% and 0.4312% and 2.002% and 0.5682% and 0.06111%; the AUC_%Back_Ext_pred was 0.6232% and 6.304% and 0.4505% and 2.131% and 0.5957% and 0.06367%; the AUC_%Extrap_obs was 67.4874% and 53.7747% and 79.3116% and 67.9349% and 78.2847% and 81.1285%; the AUC_%Extrap_pred is 65.2397% and 50.0019% and 78.3872% and 65.875% and 77.2323% and 80.3371%. In data set [2] (KO (Slc28a1-/-) mice), the AUCall was 8280.65 ng·min/mL and 6290.29 ng·min/mL and 15518.1 ng·min/mL and 9575.11 ng·min/mL and 16611.9 ng·min/mL and 16508.1 ng·min/mL; the AUClast was 8280.65 ng·min/mL and 6290.29 ng·min/mL and 15518.1 ng·min/mL and 9575.11 ng·min/mL and 16611.9 ng·min/mL and 16508.1 ng·min/mL; the AUClast_D was 165.613 kg·ng·min/mL/mg and 125.806 kg·ng·min/mL/mg and 310.363 kg·ng·min/mL/mg and 191.502 kg·ng·min/mL/mg and 332.237 kg·ng·min/mL/mg and 330.163 kg·ng·min/mL/mg; the AUMCINF_obs was 14271006 min*min*ng/mL and 5009676 min*min*ng/mL and 73111057 min*min*ng/mL and 17625971 min*min*ng/mL and 70582595 min*min*ng/mL and 93013834 min*min*ng/mL. In data set [2] (KO (Slc28a1-/-) mice), the AUMCINF_pred was 12992303 min*min*ng/mL and 4388328 min*min*ng/mL and 69264936 min*min*ng/mL and 16149841 min*min*ng/mL and 66527378 min*min*ng/mL and 88496254 min*min*ng/mL; the AUMC_%Extrap_obs is 93.5147% and 88.3871% and 97.5522% and 94.251% and 97.3007% and 97.8918%; the AUMC_%Extrap_pred is 92.8764% and 86.7428% and 97.4162% and 93.7255% and 97.1361% and 97.7841%; the AUMClast was 925521 min*min*ng/mL and 581771 min*min*ng/mL and 1789646 min*min*ng/mL and 1013321 min*min*ng/mL and 1905271 min*min*ng/mL and 1960946 min*min*ng/mL. Also, in data set [2] (KO (Slc28a1-/-) mice), the Cl_pred is 2098.89 mL/min/kg and 3974.23 mL/min/kg and 696.373 mL/min/kg and 1781.96 mL/min/kg and 685.285 mL/min/kg and 595.553 mL/min/kg; the Clast is 32.0426 ng/mL and 20.0426 ng/mL and 62.0426 ng/mL and 35.0426 ng/mL and 66.0426 ng/mL and 68.0426 ng/mL; the Clast_pred was 28.9724 ng/mL and 17.2301 ng/mL and 58.6968 ng/mL and 31.9288 ng/mL and 62.1429 ng/mL and 64.6666 ng/mL; the Cmax was 49.2745 ng/mL and 91.6911 ng/mL and 79.2745 ng/mL and 88.6911 ng/mL and 85.6911 ng/mL and 85.2745 ng/mL. Further, in data set [2] (KO (Slc28a1-/-) mice), the Cmax_D is 0.9855 kg·ng/mL/mg and 1.834 kg·ng/mL/mg and 1.585 kg·ng/mL/mg and 1.774 kg·ng/mL/mg and 1.714 kg·ng/mL/mg and 1.705 kg·ng/mL/mg; the HL_Lambda_z was 371.821 min and 253.07 min and 664.637 min and 401.268 min and 628.538 min and 722.954 min; the Lambda_z is 0.001864 min⁻¹ and 0.002739 min⁻¹ and 0.001043 min⁻¹ and 0.001727 min⁻¹ and 0.001103 min⁻¹ and 0.0009588 min⁻¹; the MRTINF_obs is 9.33878 h and 6.13575 h and 16.24 h and 9.83763 h and 15.3778 h and 17.722 h. Besides, in data set [2] (KO (Slc28a1-/-) mice), the MRTINF_pred was 9.0898 h and 5.81342 h and 16.0781 h and 9.59282 h and 15.1967 h and 17.568 h; the MRTlast is 1.86282 h and 1.54145 h and 1.9221 h and 1.76382 h and 1.91155 h and 1.97978 h; the Tlast came out at 240 min; the Tmax is 0.167 h and 0.083 h. In addition, in data set [2] (KO (Slc28a1-/-) mice), the Vss_obs is 1100.017 L/kg and 1352.688 L/kg and 649.724 L/kg and 988.326 L/kg and 603.062 L/kg and 607.76 L/kg; the Vss_pred is 1144.708 L/kg and 1386.23 L/kg and 671.779 L/kg and 1025.643 L/kg and 624.846 L/kg and 627.762 L/kg; the Vz_obs is 1053.09 L/kg and 1341.512 L/kg and 639.17 L/kg and 969.32 L/kg and 592.684 L/kg and 596.16 L/kg; the Vz_pred is 1125.894 L/kg and 1451.004 L/kg and 667.729 L/kg and 1031.591 L/kg and 621.408 L/kg and 621.163 L/kg. Also, in data set [2] (WT (Slc28a1+/+) mice), the AUCINF_D_obs is 627.983 kg·ng·min/mL/mg and 293.244 kg·ng·min/mL/mg and 2095.28 kg·ng·min/mL/mg and 746.583 kg·ng·min/mL/mg and 2357.3 kg·ng·min/mL/mg and 2481.13 kg·ng·min/mL/mg; the AUCINF_D_pred is 611.177 kg·ng·min/mL/mg and 283.996 kg·ng·min/mL/mg and 2059.29 kg·ng·min/mL/mg and 727.87 kg·ng·min/mL/mg and 2318.74 kg·ng·min/mL/mg and 2441.28 kg·ng·min/mL/mg; the AUCINF_obs was 31399.2 ng·min/mL and 14662.2 ng·min/mL and 104764 ng·min/mL and 37329.2 ng·min/mL and 117865 ng·min/mL and 124056 ng·min/mL; the AUCINF_pred is 30558.9 ng·min/mL and 14199.8 ng·min/mL and 102964 ng·min/mL and 36393.5 ng·min/mL and 115937 ng·min/mL and 122064 ng·min/mL. Further, in data set [2] (WT (Slc28a1+/+) mice), the AUC_%Back_Ext_obs was 0.6002% and 4.658% and 0.3469% and 1.514% and 0.3975% and 0.07533%; the AUC_%Back_Ext_pred was 0.6167% and 4.81% and 0.353% and 1.5528% and 0.4041% and 0.07656%; the AUC_%Extrap_obs is 74.9814% and 61.0207% and 85.5932% and 75.6831% and 86.2719% and 87.0356%; the AUC_%Extrap_pred is 74.2934% and 59.7514% and 85.3414% and 75.0579% and 86.0436% and 86.824%. In addition, in data set [2] (WT (Slc28a1+/+) mice), the AUCall is 7855.65 ng·min/mL and 5715.22 ng·min/mL and 15093.1 ng·min/mL and 9077.31 ng·min/mL and 16180.6 ng·min/mL and 16083.1 ng·min/mL; the AUClast is 7855.65 ng·min/mL and 5715.22 ng·min/mL and 15093.1 ng·min/mL and 9077.31 ng·min/mL and 16180.6 ng·min/mL and 16083.1 ng·min/mL; the AUClast_D was 157.113 kg·ng·min/mL/mg and 114.304 kg·ng·min/mL/mg and 301.863 kg·ng·min/mL/mg and 181.546 kg·ng·min/mL/mg and 323.613 kg·ng·min/mL/mg and 321.663 kg·ng·min/mL/mg; the AUMCINF_obs is 25618307 min*min*ng/mL and 7382666 min*min*ng/mL and 159455048 min*min*ng/mL and 32660009 min*min*ng/mL and 190278277 min*min*ng/mL and 207071348 min*min*ng/mL. Moreover, in data set [2] (WT (Slc28a1+/+) mice), the AUMCINF_pred is 24735428 min*min*ng/mL and 7028934 min*min*ng/mL and 156289942 min*min*ng/mL and 31610468 min*min*ng/mL and 186705642 min*min*ng/mL and 203285848 min*min*ng/mL; the AUMC_%Extrap_obs is 96.5565% and 92.707% and 98.9048% and 97.0301% and 99.0215% and 99.0739%; the AUMC_%Extrap_pred is 96.4336% and 92.3399% and 98.8827% and 96.9315% and 99.0028% and 99.0567%; the AUMClast was 882171 min*min*ng/mL and 538421 min*min*ng/mL and 1746296 min*min*ng/mL and 969971 min*min*ng/mL and 1861921 min*min*ng/mL and 1917596 min*min*ng/mL. Also, in data set [2] (WT (Slc28a1+/+) mice), the Cl_pred was 1636.19 mL/min/kg and 3521.18 mL/min/kg and 485.605 mL/min/kg and 1373.87 mL/min/kg and 431.268 mL/min/kg and 409.621 mL/min/kg; the Clast was 29.0426 ng/mL and 17.0426 ng/mL and 59.0426 ng/mL and 32.0426 ng/mL and 63.0426 ng/mL and 65.0426 ng/mL; the Clast_pred is 28.006 ng/mL and 16.1618 ng/mL and 57.8576 ng/mL and 30.9814 ng/mL and 61.8472 ng/mL and 63.8424 ng/mL; the Cmax is 69.2745 ng/mL and 99.6911 ng/mL and 99.2745 ng/mL and 96.6911 ng/mL and 103.275 ng/mL and 105.275 ng/mL. Further, in data set [2] (WT (Slc28a1+/+) mice), the Cmax_D was 1.385 kg·ng/mL/mg and 1.994 kg·ng/mL/mg and 1.985 kg·ng/mL/mg and 1.934 kg·ng/mL/mg and 2.065 kg·ng/mL/mg and 2.105 kg·ng/mL/mg; the HL_Lambda_z was 561.904 min and 363.887 min and 1052.72 min and 611.146 min and 1118.01 min and 1150.65 min; the Lambda_z was 0.001234 min⁻¹ and 0.001905 min⁻¹ and 0.0006584 min⁻¹ and 0.001134 min⁻¹ and 0.00062 min⁻¹ and 0.0006024 min⁻¹; the MRTINF_obs was 13.5982 h and 8.39195 h and 25.3673 h and 14.582 h and 26.9062 h and 27.8195 h. Besides, in data set [2] (WT (Slc28a1+/+) mice), the MRTINF_pred was 13.4906 h and 8.25005 h and 25.298 h and 14.4762 h and 26.84 h and 27.757 h; the MRTlast is 1.87163 h and 1.57014 h and 1.92835 h and 1.78095 h and 1.91785 h and 1.9872 h; the Tlast is given as 240 min; the time to peak (Tmax) was 0.167 h and 0.083 h. For the same compound, in data set [2] (WT (Slc28a1+/+) mice), the Vss_obs is 1299.224 L/kg and 1717.058 L/kg and 726.413 L/kg and 1171.898 L/kg and 684.839 L/kg and 672.746 L/kg; the Vss_pred is 1324.388 L/kg and 1742.993 L/kg and 737.1 L/kg and 1193.31 L/kg and 694.517 L/kg and 682.183 L/kg; the Vz_obs was 1290.887 L/kg and 1790.244 L/kg and 724.843 L/kg and 1180.977 L/kg and 684.235 L/kg and 669.067 L/kg; the Vz_pred is 1326.384 L/kg and 1848.542 L/kg and 737.512 L/kg and 1211.34 L/kg and 695.614 L/kg and 679.987 L/kg.
